Data reported in US20210275575A1, “COMPOSITION FOR IMPROVING RENAL FUNCTION IN RENAL DISEASES CONTAINING MOLECULAR HYDROGEN” (MiZ Company Limited, priority 2020, published 2021).
Where two headings read alike, the source gives them in different places.

Tests used:
[1] = tested on: patient with renal failure
Protocol: A person developed renal failure from diabetes and has been on dialysis since 2006.
Therefore, they started hydrogen gas inhalation in September 2019. Specifically, they did inhalations 3 to 4 hours per day using a hydrogen generator (model used: Jobs-a manufactured by MiZ Company Limited (hydrogen concentration: about 5%, other gas: air), amount of hydrogen gas generated: 200 ml/min).

[2] = tested on: human patient with chronic nephritis
[3] = approximately three years after first visit (about 2 years of inhalation)
[4] = approximately two and a half years after first visit
[5] = approximately two and a half years after first visit, 6 to 7.5% hydrogen inhaled 2 to 3 hours per day

[HH] [molecular hydrogen]
feelings of heaviness after dialysis ([1]; 1 month after starting hydrogen inhalation): their body felt lighter | edema after dialysis ([1]; 1 month after starting hydrogen inhalation, about 5% hydrogen in air, 3 to 4 hours per day): the edema decreased | walking ability ([1]; 10 days after starting hydrogen inhalation, about 5% hydrogen in air, 3 to 4 hours per day): became able to walk | urinary protein (protein amount per day) ([2]; about 2 years of inhalation, when the excreted urine volume is 1.5 L per day, normal levels: less than 0.2 g/day): about 0.1 g/day | urinary protein determination ([2]; approximately three years after first visit (about 2 years after the start of molecular hydrogen inhalation)): 6.6 mg/dL | HbA1c [2, 3]: 6.5% | blood sugar level [2, 3]: 139 mg/dL | glyco-albumin [2, 3]: 17.3% | need for dialysis (doctor's judgement) [2, 3]: dialysis was not required | renal function and diabetic symptoms (assessment in words) [2, 3]: improvement in renal function and diabetic symptoms was observed | serum creatinine [2, 3]: 0.86 mg/dL | urea nitrogen (BUN) [2, 3]: 21.5 mg/dL | urinary creatinine [2, 3]: 27.3 mg/dL | eGFR ([2]; approximately three years after first visit (about 2 years of inhalation), formula of b46 (ml/min/1.73 m^2)): 45.9 | urinary protein/urinary creatinine ratio ([2]; approximately three years after first visit (about 2 years of inhalation), normal levels: less than 0.3 g/gCr): 0.24 g/gCr | HbA1c [2, 4]: 8.0% | blood sugar level [2, 4]: 181 mg/dL | glyco-albumin [2, 4]: 24.7% | renal function (assessment in words) [2, 4]: tendency for improvement | serum creatinine [2, 4]: 0.91 mg/dL | symptoms of diabetes (assessment in words) [2, 4]: seem to be getting worse | urea nitrogen (BUN) [2, 4]: 22.1 mg/dL | urinary creatinine [2, 5]: 24.1 mg/dL | urinary protein determination [2, 5]: 25.3 mg/dL | urinary protein/urinary creatinine ratio [2, 5]: 1.05 g/gCr | eGFR ([2]; approximately two and a half years after first visit, eGFR estimated by the formula of b46 (ml/min/1.73 m^2)): 52.0 | urinary protein ([2]; approximately two and a half years after first visit, inhalation of 6 to 7.5% hydrogen about 2 to 3 hours per day, started about one year after first visit, concomitant medicaments): ± (± is A2)
